Laboratory results: US8748481B2, “Method for treating gastrointestinal disorder” (Sucampo AG, priority 2004, dated 2014)
Marks after values point to notes of the source that are not given here.

How the values were obtained:
Format in all cases: in vivo, human
[1] = tested on: subjects with occasional constipation; assay: Severity of constipation, abdominal bloating and abdominal discomfort during 6 and 12 months treatment (Example 1); details: 48 μg/day, 6 months and 12 months treatment
Method: Multi-center, open-label study was performed to evaluate the safety of 48 μg of Compound A (13,14-dihydro-15-keto-16,16-difluoro-PGE1) (24 μg of Compound A b.i.d) when administered daily for 24 weeks (6 months) or 48 weeks (12 months) to subjects with occasional constipation. […] After 14-day drug-free washout period, they received 48 μg of Compound A (24 μg of Compound A b.i.d) orally for 48 weeks.
Each parameter (Severity of Constipation, Abdominal bloating or Abdominal discomfort) was evaluated on the scale of: 0 (absent), 1 (mild), 2 (moderate), 3 (severe) and 4 (very severe) in the patients during 6 months (n=246) or 12 months (n=304) treatments.

[2] = tested on: male and female patients with occasional constipation; assay: Weekly number of spontaneous bowel movements in male vs. female patients (Example 4); details: 48 μg/day, 4 weeks
Method: Multi-center, parallel-group, double-blind, placebo-controlled study was performed to compare the effect of Compound A on the weekly number of spontaneous bowel movements in male and female patients. Male and female patients with occasional constipation were received 48 μg (total daily dose) of Compound A (24 μg of Compound A b.i.d) for 4 weeks. The bowel movements in the patient were recorded during the treatment.

[3] = tested on: subjects with irritable bowel syndrome (IBS); assay: IBS QOL questionnaire, 12-week double-blind randomized study (Example 7); parameters: key to IBS QOL Overall scaled score, Mean / IBS QOL Dysphoria scaled score, Mean / IBS QOL Interference with Activity scaled score, Mean / IBS QOL Body Image scaled score, Mean / IBS QOL Health Worry scaled score, Mean / IBS QOL Food Avoidance scaled score, Mean / IBS QOL Social Reaction scaled score, Mean / IBS QOL Sexual scaled score, Mean / IBS QOL Relationship scaled score, Mean: IBS-QOL scaled score, 0–100; details: for IBS QOL Body Image scaled score, Mean / IBS QOL Dysphoria scaled score, Mean / IBS QOL Food Avoidance scaled score, Mean / IBS QOL Health Worry scaled score, Mean / IBS QOL Interference with Activity scaled score, Mean / IBS QOL Overall scaled score, Mean / IBS QOL Relationship scaled score, Mean / IBS QOL Sexual scaled score, Mean / IBS QOL Social Reaction scaled score, Mean: Baseline; for IBS QOL Body Image, Mean change from Baseline / IBS QOL Dysphoria, Mean change from Baseline / IBS QOL Food Avoidance, Mean change from Baseline / IBS QOL Health Worry, Mean change from Baseline / IBS QOL Interference with Activity, Mean change from Baseline / IBS QOL Overall, Mean change from Baseline / IBS QOL Relationship, Mean change from Baseline / IBS QOL Sexual, Mean change from Baseline / IBS QOL Social Reaction, Mean change from Baseline: without LOCF
Method: A 12-week, double-blind, randomized study was performed to assess the safety and efficacy of oral 16 μg, 32 μg and 48 μg (total daily dose) of compound A to subjects with irritable bowel syndrome (IBS).
The patients answered the IBS QOL questionnaire at baseline, at week 4, Week 12 and at the end of study, and Questionnaire results were scored according to the IBS QOL User's Manual (A Quality of Life Measure for Persons with Irritable Bowel Syndrome (IBS-QOL): User's Manual and Scoring Diskette for United States Version. Seattle, Wash.: University of Washington; 1997). Scaled scores were used for all analyses, and scores were calculated according to the User's Manual as follows: Scaled Score=([Sum of IBS-QOL items−lowest possible score]/Possible raw score range))×100
Changes from baseline at week 4, week 12 and at the End of Study were assessed for the mean overall score and for the mean domain scores (dysphoria, interference with activity, body image, health worry, food avoidance, social reaction, sexual, and relationship).

## CCCCC(F)(F)C(=O)CCC1C(O)CC(=O)C1CCCCCCC(=O)O (stereo not shown) [Compound A, 13,14-dihydro-15-keto-16,16-difluoro-PGE1]
[1]
  Efficacy on severity of constipation, abdominal bloating and abdominal discomfort (FIGS. 1 to 6): effective
[2]
  Difference between the effects in male and female patients: no significant difference
[2]; both male and female patients
  Effect on weekly number of spontaneous bowel movements (FIG. 13): significantly effective
[3]; 16 μg group vs. 32 μg and 48 μg groups, every specific area and QOL overall
  Improvement from baseline in IBS-QOL compared among dose groups: greatest improvement
[3]; 16 μg group
  IBS QOL Body Image scaled score, Mean: 41.42
  IBS QOL Dysphoria scaled score, Mean: 53.19
  IBS QOL Food Avoidance scaled score, Mean: 46.08
  IBS QOL Health Worry scaled score, Mean: 37.74
  IBS QOL Interference with Activity scaled score, Mean: 65.82
  IBS QOL Overall scaled score, Mean: 55.66
  IBS QOL Relationship scaled score, Mean: 67.81
  IBS QOL Sexual scaled score, Mean: 64.95
  IBS QOL Social Reaction scaled score, Mean: 63.97
[3]; 16 μg/day, End of Study
  IBS QOL Body Image, Mean change from Baseline: 20.41**
  IBS QOL Dysphoria, Mean change from Baseline: 21.62**
  IBS QOL Food Avoidance, Mean change from Baseline: 13.95**
  IBS QOL Health Worry, Mean change from Baseline: 21.94**
  IBS QOL Interference with Activity, Mean change from Baseline: 11.95**
  IBS QOL Overall, Mean change from Baseline: 16.82**
  IBS QOL Relationship, Mean change from Baseline: 14.28**
  IBS QOL Sexual, Mean change from Baseline: 14.03**
  IBS QOL Social Reaction, Mean change from Baseline: 13.78**
[3]; 16 μg/day, Week 4
  IBS QOL Body Image, Mean change from Baseline: 16.39**
  IBS QOL Dysphoria, Mean change from Baseline: 17.85**
  IBS QOL Food Avoidance, Mean change from Baseline: 13.89**
  IBS QOL Health Worry, Mean change from Baseline: 22.41**
  IBS QOL Interference with Activity, Mean change from Baseline: 10.87**
  IBS QOL Overall, Mean change from Baseline: 14.7**
  IBS QOL Relationship, Mean change from Baseline: 10.74**
  IBS QOL Sexual, Mean change from Baseline: 13.33**
  IBS QOL Social Reaction, Mean change from Baseline: 11.94**
[3]; 16 μg/day, Week 12
  IBS QOL Body Image, Mean change from Baseline: 22.32**
  IBS QOL Dysphoria, Mean change from Baseline: 23.51**
  IBS QOL Food Avoidance, Mean change from Baseline: 15.28**
  IBS QOL Health Worry, Mean change from Baseline: 23.81**
  IBS QOL Interference with Activity, Mean change from Baseline: 13.95**
  IBS QOL Overall, Mean change from Baseline: 18.54**
  IBS QOL Relationship, Mean change from Baseline: 15.47**
  IBS QOL Sexual, Mean change from Baseline: 16.67**
  IBS QOL Social Reaction, Mean change from Baseline: 14.58**
[3]; 32 μg group
  IBS QOL Body Image scaled score, Mean: 43.37
  IBS QOL Dysphoria scaled score, Mean: 59.69
  IBS QOL Food Avoidance scaled score, Mean: 52.21
  IBS QOL Health Worry scaled score, Mean: 44.38
  IBS QOL Interference with Activity scaled score, Mean: 69.82
  IBS QOL Overall scaled score, Mean: 60.14
  IBS QOL Relationship scaled score, Mean: 70.23
  IBS QOL Sexual scaled score, Mean: 68.62
  IBS QOL Social Reaction scaled score, Mean: 66.84
[3]; 32 μg/day, End of Study
  IBS QOL Body Image, Mean change from Baseline: 17.47**
  IBS QOL Dysphoria, Mean change from Baseline: 14.77**
  IBS QOL Food Avoidance, Mean change from Baseline: 10.79**
  IBS QOL Health Worry, Mean change from Baseline: 17.61**
  IBS QOL Interference with Activity, Mean change from Baseline: 8.2**
  IBS QOL Overall, Mean change from Baseline: 12.58**
  IBS QOL Relationship, Mean change from Baseline: 10.79**
  IBS QOL Sexual, Mean change from Baseline: 10.23**
  IBS QOL Social Reaction, Mean change from Baseline: 11.08**
[3]; 32 μg/day, Week 4
  IBS QOL Body Image, Mean change from Baseline: 15.28**
  IBS QOL Dysphoria, Mean change from Baseline: 14.58**
  IBS QOL Food Avoidance, Mean change from Baseline: 8.33*
  IBS QOL Health Worry, Mean change from Baseline: 16.9**
  IBS QOL Interference with Activity, Mean change from Baseline: 7.04*
  IBS QOL Overall, Mean change from Baseline: 11.25**
  IBS QOL Relationship, Mean change from Baseline: 7.64*
  IBS QOL Sexual, Mean change from Baseline: 8.68**
  IBS QOL Social Reaction, Mean change from Baseline: 9.9**
[3]; 32 μg/day, Week 12
  IBS QOL Body Image, Mean change from Baseline: 17.99**
  IBS QOL Dysphoria, Mean change from Baseline: 15.25**
  IBS QOL Food Avoidance, Mean change from Baseline: 11.36**
  IBS QOL Health Worry, Mean change from Baseline: 19.44**
  IBS QOL Interference with Activity, Mean change from Baseline: 9.42**
  IBS QOL Overall, Mean change from Baseline: 13.08**
  IBS QOL Relationship, Mean change from Baseline: 9.09*
  IBS QOL Sexual, Mean change from Baseline: 10.98**
  IBS QOL Social Reaction, Mean change from Baseline: 10.8**
[3]; 48 μg group
  IBS QOL Body Image scaled score, Mean: 45.69
  IBS QOL Dysphoria scaled score, Mean: 56.81
  IBS QOL Food Avoidance scaled score, Mean: 50.37
  IBS QOL Health Worry scaled score, Mean: 44.07
  IBS QOL Interference with Activity scaled score, Mean: 68.25
  IBS QOL Overall scaled score, Mean: 59.85
  IBS QOL Relationship scaled score, Mean: 75.18
  IBS QOL Sexual scaled score, Mean: 71.94
  IBS QOL Social Reaction scaled score, Mean: 66.81
[3]; 48 μg/day, End of Study
  IBS QOL Body Image, Mean change from Baseline: 14.24**
  IBS QOL Dysphoria, Mean change from Baseline: 16.28**
  IBS QOL Food Avoidance, Mean change from Baseline: 8.33**
  IBS QOL Health Worry, Mean change from Baseline: 17.05**
  IBS QOL Interference with Activity, Mean change from Baseline: 7.97**
  IBS QOL Overall, Mean change from Baseline: 11.54**
  IBS QOL Relationship, Mean change from Baseline: 6.01**
  IBS QOL Sexual, Mean change from Baseline: 3.49
  IBS QOL Social Reaction, Mean change from Baseline: 12.06**
[3]; 48 μg/day, Week 4
  IBS QOL Body Image, Mean change from Baseline: 13.24**
  IBS QOL Dysphoria, Mean change from Baseline: 17.28**
  IBS QOL Food Avoidance, Mean change from Baseline: 12.01**
  IBS QOL Health Worry, Mean change from Baseline: 19.61**
  IBS QOL Interference with Activity, Mean change from Baseline: 9.14**
  IBS QOL Overall, Mean change from Baseline: 12.43**
  IBS QOL Relationship, Mean change from Baseline: 6.87**
  IBS QOL Sexual, Mean change from Baseline: 8.46**
  IBS QOL Social Reaction, Mean change from Baseline: 8.82**
[3]; 48 μg/day, Week 12
  IBS QOL Body Image, Mean change from Baseline: 17.08**
  IBS QOL Dysphoria, Mean change from Baseline: 20.83**
  IBS QOL Health Worry, Mean change from Baseline: 23.33**
  IBS QOL Interference with Activity, Mean change from Baseline: 10.95**
  IBS QOL Overall, Mean change from Baseline: 14.8**
  IBS QOL Relationship, Mean change from Baseline: 6.95**
  IBS QOL Sexual, Mean change from Baseline: 5
  IBS QOL Social Reaction, Mean change from Baseline: 14.17**
[3]; all groups (16, 32, 48 μg)
  IBS-QOL change from baseline vs. zero: significantly different from Zero
